From article PMC7523345 (Investigational new drugs, 2018)

Legend:
[1] = molecular target: Notch receptors (Notch1 to 4); settings: all 4 mammalian Notch receptors (Notch1 to 4); nonclinical; cited from earlier work
[2] = in vivo; cited from earlier work
solid tumour xenografts = settings: including 3 breast, 1 NSCLC, 1 pancreatic carcinoma; nonclinical; cited from earlier work
Deltex1 = Deltex1 expression in peripheral blood; type: in vivo, human; settings: 4 mg BIW
advanced solid tumours = experiment: Tumour response by RECIST 1.1; type: in vivo, human
clinical = experiment: clinical; set-up: species or system human; settings: in vivo

SMILES: Cc1cccc2c1NC(=O)[C@@H](NC(=O)[C@H](CCC(F)(F)F)[C@H](CCC(F)(F)F)C(N)=O)N=C2c1cccc(F)c1 [BMS-986115]
- median inhibitory concentrations (IC50s) [1]: low nanomolar
- Main pharmacological toxicities in animal studies [2]: dose-dependent gastrointestinal (GI) toxicity, lymphoid depletion, and interruption of ovarian follicle maturation
- Solid tumour xenografts with anti-tumour activity (solid tumour xenografts): 5 out of 7
- Inhibition of geometric mean relative expression of Deltex1 (Deltex1): > 50%
- Subjects with progressive disease as best tumour response (advanced solid tumours; 36 treated subjects): 58%
- Subjects with stable disease (SD) as best tumour response (advanced solid tumours; 36 treated subjects): 31%
- Subjects with SD for more than 6 months (advanced solid tumours; 36 treated subjects, both arms): 5 subjects
- Patients with stable disease for more than 6 months (advanced solid tumours; Arm A): Three
- Patients with stable disease for more than 6 months (advanced solid tumours; Arm B): 2 patients
- Patients with prolonged SD of >6 months with disease shrinkage (advanced solid tumours; dose levels that are pharmacodynamically active): 3 patients
- maximum tumor shrinkage (advanced solid tumours; patient with clear cell renal cell carcinoma, 1.2 mg QD, after ~5.5 months of treatment): 23.9%
- maximum disease shrinkage (advanced solid tumours; patient with fibromatosis, 1.5 mg QD, after ~9 months of treatment): 16.5%
- maximum tumor shrinkage (advanced solid tumours; patient with retroperitoneal liposarcoma, 2 mg QD, after ~7.5 months of treatment): 13.8%
- half-life (clinical; human): 17.2 to 28 h
- median accumulation ratio (AUCtau ratio of Day 15/Day 1) (clinical; human, 0.3 mg): 2.64
- median accumulation ratio (AUCtau ratio of Day 15/Day 1) (clinical; human, 0.6 mg): 3.9
- median accumulation ratio (AUCtau ratio of Day 15/Day 1) (clinical; human, 1.2 mg): 3.66
- median accumulation ratio (AUCtau ratio of Day 15/Day 1) (clinical; human, 1.5 mg): 2.33
- Accumulation ratio (AUCtau ratio of Day 16/Day 1) (clinical; human, 2 mg): 2.47
- median accumulation ratio (AUCtau ratio of Day 15/Day 1) (clinical; human, 2 mg): 2.19
- Accumulation ratio (AUCtau ratio of Day 16/Day 1) (clinical; human, 4 mg): 3.01
- Accumulation ratio (AUCtau ratio of Day 16/Day 1) (clinical; human, 8 mg): 2.77
- Exposure, dose relation (clinical): dose related increase
